Experimental findings from ChEMBL document CHEMBL4351025, “Indole-nitroimidazole conjugates as efficient manipulators to decrease the genes expression of methicillin-resistant Staphylococcus aureus” (Eur J Med Chem, 2019) are described below.

The test system of one series is Pseudomonas aeruginosa. In words: Antibacterial activity against Pseudomonas aeruginosa incubated for 24 hrs by two fold serial dilution method. The class given is functional.
For another series, the system named is Enterococcus faecalis. In words: Antibacterial activity against Enterococcus faecalis incubated for 24 hrs by two fold serial dilution method. Format: functional.
Series [1] has as its system Staphylococcus aureus. Description: Antibacterial activity against methicillin-resistant Staphylococcus aureus N315 incubated for 24 hrs by two fold serial dilution method. To be noted: N315, 24 h. Format: functional.
Series [2] relates to Staphylococcus aureus. In words: Antibacterial activity against Staphylococcus aureus ATCC 29213 incubated for 24 hrs by two fold serial dilution method. The class given is functional. To be noted: ATCC 29213, 24 h.
The next series concerns Acinetobacter baumannii. Description: Antibacterial activity against Acinetobacter baumannii incubated for 24 hrs by two fold serial dilution method. The class given is functional.
The next series relates to Klebsiella pneumoniae. Description: Antibacterial activity against Klebsiella pneumoniae incubated for 24 hrs by two fold serial dilution method. Format: functional.
A further series has as its system Escherichia coli. Description: Antibacterial activity against Escherichia coli incubated for 24 hrs by two fold serial dilution method. Format: functional.
Series [3] can be described thus: Cytotoxicity activity against human A549 cells assessed as cell viability at 2 to 64 ug/ml incubated for 24 hrs by MTT assay relative to control. Format: cell-based. To be noted: read-out: Activity. Background: Formazan colour is commonly taken as a measure of viable cells.

In brackets after ≈: the same amount, converted by molar mass.

By MIC is commonly meant the lowest concentration found to suppress growth.

Regarding `CCN(CC)C(=O)Cn1cc(/C=C(/C(C)=O)n2cc([N+](=O)[O-])nc2C)c2ccc(Cl)cc21`, the MIC against Pseudomonas aeruginosa is 128 mg/L (≈ 280 µM); against Enterococcus faecalis, 1 mg/L (≈ 2.18 µM); in the series with Staphylococcus aureus [1], 512 mg/L (≈ 1120 µM); against Staphylococcus aureus [2] it was 512 mg/L (≈ 1120 µM); in the series with Acinetobacter baumannii, 512 mg/L (≈ 1120 µM); in the series with Klebsiella pneumoniae, 512 mg/L (≈ 1120 µM). The MIC in the series with Escherichia coli is 512 mg/L (≈ 1120 µM).

For the compound `CC(=O)/C(=C/c1cn(CC(=O)N2CCN(Cc3ccc(Cl)cc3Cl)CC2)c2ccccc12)n1cc([N+](=O)[O-])nc1C`, the minimum inhibitory concentration (MIC) came to 256 mg/L (≈ 430 µM) against Pseudomonas aeruginosa; 128 mg/L (≈ 215 µM) in the series on Enterococcus faecalis; 64 mg/L (≈ 107 µM) in the series on Staphylococcus aureus [1]; 256 mg/L (≈ 430 µM) against Staphylococcus aureus [2]; 256 mg/L (≈ 430 µM) with Acinetobacter baumannii; 128 mg/L (≈ 215 µM) against Klebsiella pneumoniae. The compound further gave an MIC in the series on Escherichia coli of 512 mg/L (≈ 860 µM).

In the case of `CC(=O)Cn1cc(/C=C(/C(C)=O)n2cc([N+](=O)[O-])nc2C)c2ccccc21`, the MIC in the series on Pseudomonas aeruginosa was found to be 512 mg/L (≈ 1400 µM); against Enterococcus faecalis, 16 mg/L (≈ 43.7 µM); with Staphylococcus aureus [1], 0.5 mg/L (≈ 1.36 µM); with Staphylococcus aureus [2], 256 mg/L (≈ 699 µM); in the series with Acinetobacter baumannii it was 128 mg/L (≈ 349 µM); against Klebsiella pneumoniae it was 2 mg/L (≈ 5.46 µM). For the same compound, in the series with Escherichia coli, inhibition of growth (MIC) required 8 mg/L (≈ 21.8 µM).

In the case of `CC(=O)/C(=C/c1cn(CC(=O)N2CCN(Cc3ccc(F)cc3)CC2)c2cc(C)ccc12)n1cc([N+](=O)[O-])nc1C`, the MIC in the series with Pseudomonas aeruginosa is 128 mg/L (≈ 229 µM); in the series on Enterococcus faecalis, 64 mg/L (≈ 115 µM); in the series with Staphylococcus aureus [1], 2 mg/L (≈ 3.58 µM); in the series on Staphylococcus aureus [2], 512 mg/L (≈ 917 µM); against Acinetobacter baumannii, 512 mg/L (≈ 917 µM); in the series on Klebsiella pneumoniae, 512 mg/L (≈ 917 µM). The compound further came in with a minimum inhibitory concentration (MIC) with Escherichia coli of 512 mg/L (≈ 917 µM).

In the case of `NC1CCN(c2c(F)cc3c(=O)c(C(=O)O)cn(C4CC4)c3c2Cl)C1` (stereo not given) [CLINAFLOXACIN], the MIC against Pseudomonas aeruginosa was 32 mg/L (≈ 87.5 µM); in the series with Enterococcus faecalis it was 2 mg/L (≈ 5.47 µM); against Staphylococcus aureus [1], 16 mg/L (≈ 43.7 µM); in the series on Staphylococcus aureus [2], 0.5 mg/L (≈ 1.37 µM); with Acinetobacter baumannii, 16 mg/L (≈ 43.7 µM); in the series with Klebsiella pneumoniae, 32 mg/L (≈ 87.5 µM). The same compound displayed an MIC with Escherichia coli of 64 mg/L (≈ 175 µM).

On to `CCN(CC)C(=O)Cn1cc(/C=C(/C(C)=O)n2cc([N+](=O)[O-])nc2C)c2ccc(C)cc21`, for which the MIC against Pseudomonas aeruginosa worked out at 128 mg/L (≈ 293 µM); against Enterococcus faecalis, 64 mg/L (≈ 146 µM); in the series on Staphylococcus aureus [1], 4 mg/L (≈ 9.14 µM); with Staphylococcus aureus [2], 16 mg/L (≈ 36.6 µM); in the series with Acinetobacter baumannii, 512 mg/L (≈ 1170 µM); against Klebsiella pneumoniae, 512 mg/L (≈ 1170 µM). This compound also gave an MIC in the series on Escherichia coli of 128 mg/L (≈ 293 µM).

Turning to `CC(=O)/C(=C/c1cn(CC(=O)N2CCCC2)c2ccccc12)n1cc([N+](=O)[O-])nc1C`, the MIC against Pseudomonas aeruginosa came out at 2 mg/L (≈ 4.75 µM); against Enterococcus faecalis it was 64 mg/L (≈ 152 µM); with Staphylococcus aureus [1], 64 mg/L (≈ 152 µM); against Staphylococcus aureus [2], 64 mg/L (≈ 152 µM); in the series with Acinetobacter baumannii, 1 mg/L (≈ 2.37 µM); against Klebsiella pneumoniae, 16 mg/L (≈ 38 µM). Further, the MIC against Escherichia coli stood at 8 mg/L (≈ 19 µM).

For `C#CCn1cc(/C=C(/C(C)=O)n2cc([N+](=O)[O-])nc2C)c2ccccc21`, the MIC in the series with Pseudomonas aeruginosa was found to be 128 mg/L (≈ 367 µM); against Enterococcus faecalis, 32 mg/L (≈ 91.9 µM); in the series with Staphylococcus aureus [1], 2 mg/L (≈ 5.74 µM); in the series on Staphylococcus aureus [2], 128 mg/L (≈ 367 µM); against Acinetobacter baumannii, 128 mg/L (≈ 367 µM); in the series with Klebsiella pneumoniae, 128 mg/L (≈ 367 µM). Further, the lowest concentration to inhibit growth in the series on Escherichia coli (MIC) was 512 mg/L (≈ 1470 µM).

As to `CC(=O)/C(=C/c1cn(CC(=O)N2CCCCC2)c2cc(Cl)ccc12)n1cc([N+](=O)[O-])nc1C`, the MIC in the series with Pseudomonas aeruginosa is 256 mg/L (≈ 545 µM); in the series with Enterococcus faecalis, 4 mg/L (≈ 8.51 µM); with Staphylococcus aureus [1], 64 mg/L (≈ 136 µM); in the series on Staphylococcus aureus [2] it was 512 mg/L (≈ 1090 µM); in the series with Acinetobacter baumannii it was 512 mg/L (≈ 1090 µM); against Klebsiella pneumoniae it was 64 mg/L (≈ 136 µM). Moreover, the MIC with Escherichia coli was 64 mg/L (≈ 136 µM).

As for `CC(=O)/C(=C/c1cn(CC(=O)N(C)c2ccccc2)c2ccccc12)n1cc([N+](=O)[O-])nc1C`, the MIC was 128 mg/L (≈ 280 µM) against Pseudomonas aeruginosa; 64 mg/L (≈ 140 µM) in the series on Enterococcus faecalis; 1 mg/L (≈ 2.19 µM) in the series on Staphylococcus aureus [1]; 128 mg/L (≈ 280 µM) against Staphylococcus aureus [2]; 128 mg/L (≈ 280 µM) against Acinetobacter baumannii; 32 mg/L (≈ 69.9 µM) with Klebsiella pneumoniae. This compound also showed an MIC against Escherichia coli of 32 mg/L (≈ 69.9 µM).

Turning to `CC(=O)/C(=C/c1cn(CC(=O)N2CCCCC2)c2cc(C)ccc12)n1cc([N+](=O)[O-])nc1C`, the MIC against Pseudomonas aeruginosa worked out at 32 mg/L (≈ 71.2 µM); against Enterococcus faecalis, 128 mg/L (≈ 285 µM); in the series on Staphylococcus aureus [1], 1 mg/L (≈ 2.22 µM); in the series with Staphylococcus aureus [2] it was 16 mg/L (≈ 35.6 µM); in the series with Acinetobacter baumannii, 256 mg/L (≈ 570 µM); against Klebsiella pneumoniae it was 32 mg/L (≈ 71.2 µM). In the series with Escherichia coli, this compound had an MIC of 256 mg/L (≈ 570 µM).

As for `COc1cccc2c1C(=O)c1c(O)c3c(c(O)c1C2=O)C[C@@](O)(C(=O)CO)C[C@@H]3O[C@H]1C[C@H](N)[C@H](O)[C@H](C)O1` [DOXORUBICIN], in series [3], the viability at 24 h was below 75%.

Turning to `CCn1cc(C(=O)O)c(=O)c2cc(F)c(N3CCNCC3)cc21` [NORFLOXACIN], the MIC against Pseudomonas aeruginosa is 2 mg/L (≈ 6.26 µM); in the series with Enterococcus faecalis, 4 mg/L (≈ 12.5 µM); with Staphylococcus aureus [1], 8 mg/L (≈ 25.1 µM); in the series with Staphylococcus aureus [2], 2 mg/L (≈ 6.26 µM); against Acinetobacter baumannii, 8 mg/L (≈ 25.1 µM); with Klebsiella pneumoniae it was 4 mg/L (≈ 12.5 µM). The compound further showed an MIC against Escherichia coli of 16 mg/L (≈ 50.1 µM).

In the case of `CC(=O)/C(=C/c1cn(CC(=O)N2CCN(Cc3ccc(F)cc3)CC2)c2cc(Cl)ccc12)n1cc([N+](=O)[O-])nc1C`, the minimal inhibitory concentration (MIC) in the series with Pseudomonas aeruginosa came out at 128 mg/L (≈ 221 µM); against Enterococcus faecalis, 2 mg/L (≈ 3.45 µM); against Staphylococcus aureus [1], 512 mg/L (≈ 884 µM); with Staphylococcus aureus [2], 512 mg/L (≈ 884 µM); with Acinetobacter baumannii it was 512 mg/L (≈ 884 µM); in the series with Klebsiella pneumoniae, 512 mg/L (≈ 884 µM). Moreover, the MIC against Escherichia coli worked out at 512 mg/L (≈ 884 µM).

Turning to `CC(=O)/C(=C/c1cn(CC(=O)N(C(C)C)C(C)C)c2ccccc12)n1cc([N+](=O)[O-])nc1C`, the minimum inhibitory concentration (MIC) turned out to be 512 mg/L (≈ 1130 µM) against Pseudomonas aeruginosa; 64 mg/L (≈ 142 µM) with Enterococcus faecalis; 1 mg/L (≈ 2.21 µM) in the series with Staphylococcus aureus [1]; 512 mg/L (≈ 1130 µM) in the series with Staphylococcus aureus [2]; 512 mg/L (≈ 1130 µM) in the series on Acinetobacter baumannii; 16 mg/L (≈ 35.4 µM) against Klebsiella pneumoniae. The compound also showed an MIC in the series with Escherichia coli of 64 mg/L (≈ 142 µM).

Turning to `C=CCn1cc(/C=C(/C(C)=O)n2cc([N+](=O)[O-])nc2C)c2ccccc21`, the MIC is 16 mg/L (≈ 45.7 µM) against Pseudomonas aeruginosa; 64 mg/L (≈ 183 µM) with Enterococcus faecalis; 32 mg/L (≈ 91.3 µM) against Staphylococcus aureus [1]; 4 mg/L (≈ 11.4 µM) against Staphylococcus aureus [2]; 16 mg/L (≈ 45.7 µM) in the series on Acinetobacter baumannii; 32 mg/L (≈ 91.3 µM) in the series on Klebsiella pneumoniae. In addition, the MIC against Escherichia coli came out at 32 mg/L (≈ 91.3 µM).

In the case of `CC(=O)/C(=C/c1cn(CC(=O)N(C2CCCCC2)C2CCCCC2)c2ccccc12)n1cc([N+](=O)[O-])nc1C`, the MIC against Pseudomonas aeruginosa came out at 512 mg/L (≈ 963 µM); in the series with Enterococcus faecalis it was 128 mg/L (≈ 241 µM); against Staphylococcus aureus [1], 2 mg/L (≈ 3.76 µM); against Staphylococcus aureus [2], 512 mg/L (≈ 963 µM); in the series with Acinetobacter baumannii, 512 mg/L (≈ 963 µM); in the series with Klebsiella pneumoniae, 8 mg/L (≈ 15 µM). The compound further had a minimum inhibitory concentration (MIC) with Escherichia coli of 32 mg/L (≈ 60.2 µM).

As to `CC(=O)/C(=C/c1cn(CC(=O)N2CCOCC2)c2ccccc12)n1cc([N+](=O)[O-])nc1C`, the MIC against Pseudomonas aeruginosa turned out to be 128 mg/L (≈ 293 µM); against Enterococcus faecalis, 32 mg/L (≈ 73.2 µM); against Staphylococcus aureus [1], 2 mg/L (≈ 4.57 µM); with Staphylococcus aureus [2], 64 mg/L (≈ 146 µM); against Acinetobacter baumannii, 256 mg/L (≈ 585 µM); in the series with Klebsiella pneumoniae it was 16 mg/L (≈ 36.6 µM). The compound also showed an MIC in the series with Escherichia coli of 32 mg/L (≈ 73.2 µM).
